Laboratory results taken from publication PMC6271545, “Comparative Pharmacokinetics Study of Sinomenine in Rats after Oral Administration of Sinomenine Monomer and Sinomenium Acutum Extract” (Molecules, 2014).

Experiment: Pharmacokinetics of sinomenine in rat plasma after oral administration of sinomenine monomer and Sinomenium acutum extract
Conditions: male, Wistar

COC1=C[C@H]2[C@H]3Cc4ccc(OC)c(O)c4[C@@]2(CCN3C)CC1=O [Sinomenine, 7,8-didehydro-4-hydroxy-3,7-dimethoxy-17-methylmorphinane-6-one]
AUC(0-inf) (30 mg/kg): 32800 ± 5370 ng·h/mL | AUC(0-t) (30 mg/kg): 29200 ± 4060 ng·h/mL | CL/F (30 mg/kg): 15.6 mL/min/kg | Cmax (30 mg/kg): 5240 ± 390 ng/mL | MRT inf (30 mg/kg): 7.3 ± 0.889 h | Tmax (30 mg/kg): 1.08 ± 0.204 h | half-life (30 mg/kg): 4.88 ± 0.635 h | AUC(0-inf) (60 mg/kg): 94000 ± 11200 ng·h/mL | AUC(0-t) (60 mg/kg): 78900 ± 5130 ng·h/mL | CL/F (60 mg/kg): 10.8 mL/min/kg | Cmax (60 mg/kg): 11600 ± 942 ng/mL | MRT inf (60 mg/kg): 8.8 ± 1.91 h | Tmax (60 mg/kg): 1.5 ± 0.316 h | half-life (60 mg/kg): 5.77 ± 1.59 h
